Structures can show the parent of a compound that is named as a salt. Square brackets hold non-standard residues; d marks the D form. Peptide text beside a SMILES is read from it. * marks the point of attachment. Sta = CC(C)C[C@H](N)[C@@H](O)CC(=O)O; Isovaleryl = CC(C)CC(=O)*
B1: Soybean trypsin inhibitor: plant-derived trypsin inhibitor (protein, UniProt P01070 25-205, looked up)
Trypsin inhibitor A: DFVLDNEGNPLENGGTYYILSDITAFGGIRAAPTGNERCPLTVVQSRNELDKGIGTIISSPYRIRFIAEGHPLSLKFDSFAVIMLCVGIPTEWSVVEDLPEGPAVKIGENKDAMDGWFRLERVSDDEFNNYKLVFCPQQAEDDKCGDIGISIDHDDGTRRLVVSKNKPLVVQFQKLDKESL

What was measured:
[1] = biological target: trypsin activity in feces; assay: Fecal Trypsin Activity (Specific Fecal Enzyme Method); type: biochemical; conditions: pooled infant fecal suspension, pH 8.2, 25° C.; read-out: IC50 Specific Fecal Enzyme Methods Trypsin
Excerpt: (§1) The following is a general description of a method for obtaining a sample of feces suitable for use in Fecal Protease Methods. However, one skilled in the art will be able to adapt the method to obtain appropriate samples of feces suitable for use in any of the Specific Fecal Protease Methods listed below (i.e., lipase, urease, and amylase) without undue experimentation.
(§2) Pooled infant feces (at least five different samples) are collected in a manner to keep them free of urine and contamination and mixed with water to obtain a weight by weight (w/w) mixture (e.g., 1:50 w/w). This mixture is then mixed thoroughly to obtain a homogeneous suspension by homogenization or sonication. […] (Also, to ensure complete linearity the final absorbance should never exceed 1.5 OD405 units). If the activity of the pooled infant feces is outside this range, it is not possible to accurately determine IC50 values for putative protease inhibitors. However, the range of enzyme activity may be adjusted by increasing or decreasing the dilution factor accordingly for each enzyme. If this is not possible, a different group of subjects should be used to obtain the sample pool.
To test the efficacy of protease inhibitors against the trypsin activity in feces, inhibitor and trypsin buffer (50 mM TRIS, 20 mM CaCl2, pH 8.2) are added in a cuvette to obtain a final volume of 0.8 mL. To this mixture, 0.1 mL of substrate (3 mM Cbz-arginine-p-nitroanilide) is added to the cuvette. The cuvette is mixed by inversion and incubated at 25° C. for 5 minutes. A volume of 0.1 mL of fecal suspension is added to the cuvette, mixed and the absorbance at 405 nm minus the absorbance at 490 nm are measured over 5 minutes at 25° C. (The absorbance at 490 nm is a correction factor for the background absorbance due to the particulate fecal material, i.e., “interference”). The rate of substrate cleavage in the presence of inhibitor (vi) is the slope of a plot relating the excess absorbance (i.e., the absorbance at 405 nm minus the absorbance at 490 nm) versus time. The same procedure is repeated without the putative inhibitor. The rate of substrate cleavage in the absence of inhibitor (v) is the slope of a plot relating the excess absorbance versus time. The rates, vi and v, and the inhibitor concentration [I] are used to calculate IC50 according to the equation expressed above.

[2] = biological target: LAP activity in feces; assay: Fecal LAP Activity (Specific Fecal Enzyme Method); type: biochemical; conditions: pooled infant fecal suspension, pH 7.2, 25° C.; read-out: IC50 Specific Fecal Enzyme Methods LAP
Excerpt: as §1, §2
To test the efficacy of protease inhibitors against LAP activity in feces, inhibitor and LAP buffer (50 mM sodium phosphate, pH 7.2) are added in a cuvette to obtain a final volume of 0.95 mL. To this mixture, 0.03 mL of substrate (6 mM L-Leucine-p-nitroanilide) is added to the cuvette. The cuvette is mixed by inversion and incubated at 25° C. for 5 minutes. A volume of 0.02 mL of fecal suspension is added to the cuvette, mixed and the absorbance at 405 nm minus the absorbance at 490 nm measured over 5 minutes at 25° C. The rate of substrate cleavage in the presence of inhibitor (vi) is the slope of a plot relating the excess absorbance (i.e., the absorbance at 405 nm minus the absorbance at 490 nm) versus time. The same procedure is repeated without the putative inhibitor. The rate of substrate cleavage in the absence of inhibitor (v) is the slope of a plot relating the excess absorbance versus time. The rates, vi and v, and the inhibitor concentration [I] are used to calculate IC50 according to the equation expressed above.

Molecule	IC50 [1] [µM]	IC50 [2] [µM]
Cc1ccc(S(=O)(=O)N[C@@H](CCCCN)C(=O)CCl)cc1 [TLCK, L-1-chloro-3-[4-tosylamido]-7-amino-2-heptanone-HCl]	200	> 500
CC1(C)[C@@H](O[C@H]2O[C@H](C(=O)O)[C@@H](O)[C@H](O)[C@H]2O[C@@H]2O[C@H](C(=O)O)[C@@H](O)[C@H](O)[C@H]2O)CC[C@]2(C)[C@H]3C(=O)C=C4[C@@H]5C[C@@](C)(C(=O)O)CC[C@]5(C)CC[C@@]4(C)[C@]3(C)CC[C@@H]12 [Glycyrrhizic Acid]	> 300	> 300
N=C(N)c1ccc(OCCCCCCOc2ccc(C(=N)N)cc2)cc1 [Hexamidine diisethionate]	2.3	130
CC(C)C[C@H](NC(=O)[C@@H](NC(=O)N[C@@H](Cc1ccccc1)C(=O)O)[C@@H]1CCN=C(N)N1)C(=O)N[C@H](C=O)Cc1ccccc1 [Chymostatin]	> 500	> 500
CC(=O)N[C@@H](CC(C)C)C(=O)N[C@@H](CC(C)C)C(=O)N[C@H](C=O)CCCNC(=N)N [Leupeptin]	0.11	> 500
N=C(N)c1ccc(N)cc1 [p-Amino-benzamidine]	20	> 500
Aprotinin	0.01	> 20
CC(C)CC(=O)N[C@H](C(=O)N[C@H](C(=O)N[C@@H](CC(C)C)[C@@H](O)CC(=O)N[C@@H](C)C(=O)N[C@@H](CC(C)C)[C@@H](O)CC(=O)O)C(C)C)C(C)C [Pepstatin A] (Isovaleryl-VV[Sta]A[Sta]-OH)	> 500	> 500
B1	< 0.01	> 20

— patent US6703536B2, “Disposable absorbent article having a skin care composition containing an enzyme inhibitor” (The Procter & Gamble Company, priority 1998, dated 2004)
